{"source": "patent US7094754B2", "about": "“Anti-aging and wound healing compounds” (Kimberly-Clark Worldwide, Inc., priority 2001, dated 2006)", "key": {"pro-MMP-9": {"biological_target": "pro-MMP-9 (Homo sapiens, UniProt P14780)", "sequence (P14780 20-707)": "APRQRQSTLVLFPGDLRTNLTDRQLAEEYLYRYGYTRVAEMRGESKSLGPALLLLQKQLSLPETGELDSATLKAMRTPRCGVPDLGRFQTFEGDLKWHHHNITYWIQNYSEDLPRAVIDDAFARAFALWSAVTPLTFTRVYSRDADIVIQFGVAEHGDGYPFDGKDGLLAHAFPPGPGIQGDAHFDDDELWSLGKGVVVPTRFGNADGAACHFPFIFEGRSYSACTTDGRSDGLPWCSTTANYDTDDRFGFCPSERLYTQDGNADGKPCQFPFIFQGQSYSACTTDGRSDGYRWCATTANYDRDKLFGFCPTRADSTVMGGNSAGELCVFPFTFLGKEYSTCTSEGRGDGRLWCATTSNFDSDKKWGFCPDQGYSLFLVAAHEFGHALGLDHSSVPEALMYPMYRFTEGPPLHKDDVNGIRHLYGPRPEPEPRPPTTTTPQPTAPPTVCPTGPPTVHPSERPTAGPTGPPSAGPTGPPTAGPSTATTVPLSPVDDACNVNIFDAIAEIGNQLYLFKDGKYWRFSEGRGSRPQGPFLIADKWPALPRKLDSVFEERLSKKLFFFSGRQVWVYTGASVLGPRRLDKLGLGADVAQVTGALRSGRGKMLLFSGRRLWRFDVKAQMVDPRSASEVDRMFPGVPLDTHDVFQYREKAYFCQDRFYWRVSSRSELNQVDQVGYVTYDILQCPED", "assay": "Anti-activation (splicing) assay, pro-MMP-9 with stromilysin, HPLC", "format": "biochemical", "conditions": "0.5 μM or 1.0 μM peptide, 80 minute time course", "procedure": "FIG. 12 illustrates the conversion of pro-MMP-9 into N-terminal and C-terminal domains by stromilysin. […] At the times indicated, an aliquot was removed and subjected to HPLC. The pro-MMP peak area was integrated and was set to 100 percent for the zero time point sample.\nThe assay measures how much proenzyme is converted into mature matrix metalloproteinase. Proenzyme pro-MMP-9 (100 μg) was mixed with 0.5 μg of stromilysin in PBS. The reaction was incubated at 35° C. Aliquots were removed from the reaction over an 80 minute time course. […] The zero (injection) time point was a single peak that elutes from the column in approximately 750 seconds. This peak reduces in size as a function of time, and two new peaks appear. The first peak elutes at approximately 800 seconds, and represents the mature form of MMP-9. The second peak elutes at approximately 1100 seconds, and corresponds to the N-terminal pro-domain fragment. Peak areas were determined by integrating over the elution profile, and the percent area changes were plotted.\nThe first peak, eluting at approximately 700 seconds, is pro-MMP-9. As the splicing reaction proceeds, this peak decreases in intensity (as marked with the downwards arrow), and two new peaks appear. The first new peak, eluting at approximately 800 seconds, is mature and active MMP-9. The second new peak, eluting at approximately 1050 seconds, is the prodomain. […]"}, "[1]": {"system": "normal human dermal fibroblasts (NHDF)", "assay": "NHDF migration assay (48-well chemotaxis chamber)", "format": "cell-based", "procedure": "Normal, human dermal fibroblasts (NHDF) were obtained from Biowhittaker, (Walkersville, Md.) and propagated in T75 flasks in FBM media (500 mL, Biowhittaker) containing insulin, hFGF-b, GA-1000, and fetal bovine serum (10 mL) for up to 12 passages. For the migration assay, NHDF were washed once with 10 mL of Hank's buffered saline solution (HBSS). Three milliliters of trypsin (0.25%) in EDTA were added to the T75 flask for no more than five minutes to remove NHDF from the flask. NHDF in trypsin solution were added to 7 mL of FBM with no supplements added. NHDF were centrifuged for 5 minutes, and the supernatant was removed. NHDF were resuspended in 10 mL of FBM for counting. NHDF were centrifuged for another 5 minutes, and the supernatant was removed. NHDF were resuspended at 1×10^6 cells per mL in FBM without supplements. It was important to use FBM media only in migration assays because the complete media contains fibroblast growth factor and serum, both of which will trigger migration of fibroblasts.\nPeptides were synthesized and purified by the Microchemical Facility at Emory University or by SigmaGenesis. All peptides were analyzed by mass spectrometry after HPLC to assess purity. Approximately 0.5–2.0 milligrams of peptide were used to make fresh stock solutions (5 mg/mL in PBS) for each migration assay. The peptide stock solutions in PBS were used to make more dilute solutions (1 mg/mL, 100 μg/mL, 10 μg/mL, 1 μg/mL, 100 ng/mL, 10 ng/mL) in FBM (without supplements) for the migration assays.\nPolyvinylpyrrolidone-free polycarbonate membranes with […] pores (Neuroprobe, Inc., Gaithersburg, Md.) were washed with 90% ethanol for 15 minutes and rinsed four times with deionized water. Membranes were then placed into a glass dish containing an aqueous solution of 5 μg/mL gelatin. The glass dish was placed in to a water bath at about 90° C. for one hour. Membranes were removed from the gelatin solution and were allowed to dry for one hour in the 37° C. incubator.\nA 48-well chemotaxis chamber (Neuroprobe, Inc., Gaithersburg, Md.) (see FIG. 20) was used for the migration assays. Twenty-eight/μL of each test solution were added to the bottom wells of the chamber in quadruplicate. A gelatin-treated membrane was placed carefully on top of the bottom wells. The gasket and top part of chamber were then placed carefully on top of the membrane. The apparatus was tightened using six thumbscrews. A solution of NHDF containing an estimated cell density (2×10^5 cells per mL) was made by adding 320 μL of the 1×10^6 cells per mL solution to 1.28 mL of FBM (no supplements). Fifty microliters of the 2×10^5 cells per mL NHDF solution were added to the top part of each well in the chamber. The chamber was placed in the incubator at 37° C./5% CO2 for three hours. The chamber was removed, the thumbscrews were removed, and the chamber was turned upside down on a paper towel. […] The membrane was carefully removed. […] The membrane was fixed with methanol and stained using the Diff-Quik Staining Solutions I and II. The nuclei of NHDF are stained purple. The membrane was mounted on a glass slide using cedarwood immersion oil and a cover slip. […] The average number of migrated NHDF in the negative control was subtracted from the experimental (peptide) data and positive control data."}}}
{"smiles": "CC(C)[C@H](NC(=O)[C@H](CC(=O)O)NC(=O)[C@@H]1CCCN1C(=O)[C@H](CC(N)=O)NC(=O)CNC(=O)[C@H](CS)NC(=O)[C@H](CCCNC(=N)N)NC(=O)[C@@H]1CCCN1)C(=O)N[C@@H](C)C(=O)N[C@@H](CC(N)=O)C(=O)N[C@@H](Cc1ccc(O)cc1)C(=O)N[C@@H](CC(N)=O)C(=O)N[C@@H](Cc1ccccc1)C(=O)N[C@@H](Cc1ccccc1)C(=O)N1CCC[C@H]1C(=O)N[C@@H](CCCNC(=N)N)C(=O)N[C@@H](CCCCN)C(=O)N1CCC[C@H]1C(=O)N[C@@H](CCCCN)C(=O)O", "note": "[19-mer]", "values": [{"measurement": "conversion of pro-MMP-9 into prodomain and active enzyme by stromilysin", "setting": "pro-MMP-9", "result": "prevents the conversion of pro-MMP-9 into the prodomain and the active enzyme"}, {"measurement": "percent of migrated NHDF compared to plasma fibronectin positive control", "setting": "[1]; 100 μg/mL peptide, three hours", "result": "46%±3%"}, {"measurement": "percent of migrated NHDF compared to plasma fibronectin positive control", "setting": "[1]; 100 μg/mL peptide, three hours, listed as 19-mer peptide", "result": "46±3", "unit": "%"}, {"measurement": "percent of migrated NHDF compared to plasma fibronectin positive control", "setting": "[1]; 1000 μg/mL peptide, three hours", "result": "55%±3%"}, {"measurement": "percent of migrated NHDF compared to plasma fibronectin positive control", "setting": "[1]; 1000 μg/mL peptide, three hours, listed as 19-mer peptide", "result": "55±3", "unit": "%"}, {"measurement": "percent of migrated NHDF compared to plasma fibronectin positive control", "setting": "[1]; concentrations below 100 μg/mL", "result": "about 20%"}]}
